Data taken from patent publication US7067665B2, “Oxybenzamide derivatives useful for inhibiting factor Xa or Vlla” (Sanofi-Aventis Deutschland GmbH, priority 2000, dated 2006).

molecular target: T1, human factor Xa (Homo sapiens, UniProt P00742); test: Factor Xa chromogenic assay (substrate S-2765); type: biochemical; settings: inhibition constant for inhibition of factor Xa; IC50 corrected for substrate competition; 25° C., enzyme 0.5 nM, substrate 140 μM; read-out: Ki(FXa);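 further: purified enzyme, compound preincubated with the enzyme for 10 min before substrate addition starts the reaction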
T1 construct: 25 μl human factor Xa (Enzyme Research Laboratories, Inc; South Bend, Ind.); purchased Enzyme Research Laboratories, Inc; South Bend, Ind
T1 sequence (P00742 235-488 limits assumed): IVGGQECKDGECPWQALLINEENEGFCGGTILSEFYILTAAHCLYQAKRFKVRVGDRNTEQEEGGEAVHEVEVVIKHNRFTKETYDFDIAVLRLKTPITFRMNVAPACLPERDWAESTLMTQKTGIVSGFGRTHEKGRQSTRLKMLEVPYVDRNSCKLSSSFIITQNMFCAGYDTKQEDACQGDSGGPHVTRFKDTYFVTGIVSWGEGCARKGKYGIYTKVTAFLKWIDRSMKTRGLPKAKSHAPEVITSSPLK
T1 sequence (P00742 41-179 partner limits assumed): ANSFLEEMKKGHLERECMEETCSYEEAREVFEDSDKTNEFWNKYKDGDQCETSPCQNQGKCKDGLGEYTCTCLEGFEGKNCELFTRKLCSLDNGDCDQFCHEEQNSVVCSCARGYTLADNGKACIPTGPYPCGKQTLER

| SMILES | Ki [nM] |
| --- | --- |
| COc1ccc(C(=O)NCCCN2CCCCC2)cc1OCCc1ccc(Cl)cc1Cl [Example 15, 3-[2-(2,4-Dichlorophenyl)-ethoxy]-4-methoxy-N-(3-piperidin-1-yl-propyl)-benzamide] | 2220 |
| COc1ccc(C(=O)NCCN2CCCCC2)cc1OCCc1ccc(Cl)cc1Cl [Example 16, 3-[2-(2,4-Dichloro-phenyl)-ethoxy]-4-methoxy-N-(2-piperidin-1-yl-ethyl)-benzamide] | 4220 |
| COc1ccc(C(=O)NCC2CC(c3cc[n+]([O-])cc3)=NO2)cc1OCCc1ccc(Cl)cc1Cl (stereo not shown) [Example 28, 3-[2-(2,4-Dichloro-phenyl)-ethoxy]-N-[3-(1-hydroxy-pyridin-4-yl)-4,5-dihydro-isoxazol-5-ylmethyl]-4-methoxy-benzamide] | 960 |
| COc1ccc(C(=O)NCC2CCC(CN)CC2)cc1OCCc1ccc(Cl)cc1Cl (stereo not shown) [Example 31, N-(4-Aminomethyl-cyclohexylmethyl)-3-[2-(2,4-dichloro-phenyl)-ethoxy]-4-methoxy-benzamide] | 9340 |
| COc1ccc(C(=O)NCC2CCN(C3CCCC3)CC2)cc1OCCc1ccc(Cl)cc1Cl [Example 54, N-(1-Cyclopentyl-piperidin-4-ylmethyl)-3-[2-(2,4-dichloro-phenyl)-ethoxy]-4-methoxy-benzamide] | 6520 |
| COc1ccc(C(=O)NCC2CCN(C3CCCCC3)CC2)cc1OCCc1ccc(Cl)cc1Cl [Example 56] | 4330 |
| COc1ccc(C(=O)NCC2CCN(C3CCCCCC3)CC2)cc1OCCc1ccc(Cl)cc1Cl [Example 57] | 6220 |
| COc1ccc(C(=O)NCC2CCN(c3cc[n+]([O-])cc3)CC2)cc1OCCc1ccc(Cl)cc1Cl [Example 66] | 1480 |
| O=C(NCC1CCN(c2ccncc2)CC1)c1cc(OCCc2ccc(Cl)cc2Cl)ccc1[N+](=O)[O-] [Example 84] | 4880 |

Now from value to compound:

| Ki [nM] | SMILES |
| --- | --- |
| 1540 | COc1ccc(C(=O)N2CCN(Cc3ccccn3)CC2)cc1OCCc1ccc(Cl)cc1Cl [Example 2, {3-[2-(2,4-Dichlorophenyl)-ethoxy]-4-methoxy-phenyl}-(4-pyridin-2-ylmethyl-piperazin-1-yl)-methanone] |
| 5410 | COc1ccc(C(=O)N2CCN(c3ccncc3)CC2)cc1OCCc1ccc(Cl)cc1Cl [Example 3, {3-[2-(2,4-Dichlorophenyl)-ethoxy]-4-methoxy-phenyl}-(4-pyridin-4-yl-piperazin-1-yl)-methanone] |
| 167 | COc1cc(C(=O)N2CCN(Cc3ccncc3)CC2)cc(OCCc2ccc(Cl)cc2Cl)c1OC [Example 5, {3-[2-(2,4-Dichloro-phenyl)-ethoxy]-4,5-dimethoxy-phenyl}-(4-pyridin-4-ylmethyl-piperazin-1-yl)-methanone] |
| 306 | CCOc1ccc(C(=O)N2CCN(Cc3ccncc3)CC2)cc1OCCc1ccc(Cl)cc1Cl [Example 9, {3-[2-(2,4-Dichloro-phenyl)-ethoxy]-4-ethoxy-phenyl}-(4-pyridin-4-ylmethyl-piperazin-1-yl)-methanone] |
| 1380 | COc1ccc(C(=O)N2CCN(Cc3ccc(C#N)cc3)CC2)cc1OCCc1ccc(Cl)cc1Cl [Example 11, 4-(4-{3-[2-(2,4-Dichloro-phenyl)-ethoxy]-4-methoxy-benzoyl}-piperazin-1-ylmethyl)-benzonitrile] |
| 1410 | COc1ccc(C(=O)N2CCN(CC(=O)N(C)C)CC2)cc1OCCc1ccc(Cl)cc1Cl [Example 13, 2-(4-{3-[2-(2,4-Dichlorophenyl)-ethoxy]-4-methoxy-benzoyl}-piperazin-1-yl)-N,N-dimethyl-acetamide] |
| 2180 | COc1ccc(C(=O)N2CCN(CC(=O)N3CCCC3)CC2)cc1OCCc1ccc(Cl)cc1Cl [Example 14, 2-(4-{3-[2-(2,4-Dichlorophenyl)-ethoxy]-4-methoxy-benzoyl}-piperazin-1-yl)-1-pyrrolidin-1-yl-ethanone] |
| 407 | Cc1ccc(C(=O)N2CCN(Cc3cc[n+]([O-])cc3)CC2)cc1OCCc1ccc(Cl)cc1Cl [Example 17, {3-[2-(2,4-Dichloro-phenyl)-ethoxy]-4-methyl-phenyl}-[4-(1-oxy-pyridin-4-ylmethyl)-piperazin-1-yl]-methanone] |
| 6200 | O=C(c1ccc(CO)c(OCCc2ccc(Cl)cc2Cl)c1)N1CCN(Cc2cc[n+]([O-])cc2)CC1 [Example 18, {3-[2-(2,4-Dichloro-phenyl)-ethoxy]-4-hydroxymethyl-phenyl}-[4-(1-oxy-pyridin-4-ylmethyl)-piperazin-1-yl]-methanone] |
| 1130 | COc1ccc(C(=O)NCC2CC(c3ccncc3)=NO2)cc1OCCc1ccc(Cl)cc1Cl (stereo not shown) [Example 24, 3-[2-(2,4-Dichloro-phenyl)-ethoxy]-4-methoxy-N-(3-pyridin-4-yl-4,5-dihydro-isoxazol-5-ylmethyl)-benzamide] |
| 3040 | COc1ccc(C(=O)NCC2CCN(c3ccccn3)CC2)cc1OCCc1ccc(Cl)cc1Cl [Example 68, 3-[2-(2,4-Dichloro-phenyl)-ethoxy]-4-methoxy-N-(3,4,5,6-tetrahydro-2H-[1,2′]bipyridinyl-4-ylmethyl)-benzamide] |

same assay, conditions: read-out: Ki(FXa)

| SMILES | Ki [nM] |
| --- | --- |
| O=C(NCC1CCN(c2ccncc2)CC1)c1cccc(OCCc2ccc(Cl)cc2Cl)n1 [Example 85] | 304 |
| O=C(NCC1CCN(c2ccncc2)CC1)c1cncc(OCCc2ccc(Cl)cc2Cl)c1 [Example 87] | 70 |
| O=C(Nc1cccc(C(=O)NCC2CCN(c3ccncc3)CC2)c1)Nc1ccc(Cl)cn1 [Example 91, 3-[3-(5-Chloro-pyridin-2-yl)-ureido]-N-(3,4,5,6-tetrahydro-2H-[1,4′]bipyridinyl-4-ylmethyl)-benzamide] | 1390 |
| COc1ccc(C(=O)NCC2CCN(c3ccncc3)CC2)cc1OCc1cc(-c2ccc(Cl)s2)on1 [Example 93, 3-[5-(5-Chloro-thiophen-2-yl)-isoxazol-3-ylmethoxy]-4-methoxy-N-(3,4,5,6-tetrahydro-2H-[1,4′]bipyridinyl-4-ylmethyl)-benzamide] | 188 |
| COc1ccc(C(=O)NCC2CCN(c3ccncc3)CC2)cc1Oc1nc2ccc(Cl)cc2s1 [Example 94] | 760 |
| COc1ccc(C(=O)NCC2CCN(c3ccncc3)CC2)cc1NS(=O)(=O)c1cc2ccc(Cl)cc2s1 [Example 97, 3-(6-Chloro-benzo[b]thiophene-2-sulfonylamino)-4-methoxy-N-(3,4,5,6-tetrahydro-2H-[1,4′]bipyridinyl-4-ylmethyl)-benzamide] | 3500 |
| O=C(NCC1CCN(c2ccncc2)CC1)c1cccc(S(=O)(=O)Nc2ccc(Cl)cn2)c1 [Example 99, 3-(5-Chloro-pyridin-2-ylsulfamoyl)-N-(3,4,5,6-tetrahydro-2H-[1,4′]bipyridinyl-4-ylmethyl)-benzamide] | 3710 |
| COc1ccc(C(=O)NCC2CCN(c3ccncc3)CC2)cc1NC(=O)Cc1ccc(Cl)cc1Cl [Example 100, 3-[2-(2,4-Dichloro-phenyl)-acetylamino]-4-methoxy-N-(3,4,5,6-tetrahydro-2H-[1,4′]bipyridinyl-4-ylmethyl)-benzamide] | 298 |
| O=C(NCC1CCN(c2ccncc2)CC1)c1cc(OCCc2ccc(Cl)cc2Cl)c[n+]([O-])c1 [Example 102, 5-[2-(2,4-Dichloro-phenyl)-ethoxy]-1-oxy-N-(3,4,5,6-tetrahydro-2H-[1,4′]bipyridinyl-4-ylmethyl)-nicotinamide] | 636 |
| COc1ccc(C(=O)NC2CCN(C3CCCCC3)CC2)cc1OCCc1ccc(Cl)cc1Cl [Example 128, N-(1-Cyclohexyl-piperidin-4-yl)-3-[2-(2,4-dichloro-phenyl)-ethoxy]-4-methoxy-benzamide] | 40900 |
| COc1ccc(C(=O)NC2CCN(C3CCOCC3)CC2)cc1OCCc1ccc(Cl)cc1Cl [Example 129] | 25200 |
| COc1ccc(C(=O)NCC2CCN(c3ccncc3)CC2)cc1OCC1(c2ccc(Cl)cc2)CC1 [Example 140] | 69500 |
| COc1ccc(C(=O)NCC2CCN(c3ccncc3)CC2)cc1OCCc1ccc(Cl)nc1 [Example 145] | 591 |
| Cc1cc(N2CCC(CNC(=O)c3ccc(Cl)c(OCCc4ccc(Cl)nc4)c3)CC2)ccn1 [Example 167, 4-Chloro-3-[2-(6-chloro-pyridin-3-yl)-ethoxy]-N-(2′-methyl-3,4,5,6-tetrahydro-2H-[1,4′]bipyridinyl-4-ylmethyl)-benzamide] | 277 |
| COc1cc(C(=O)NCC2CCN(c3ccnc(C)c3)CC2)cc(OCCc2ccc(Cl)cc2Cl)c1Cl [Example 168] | 24 |
| COc1ccc(C(=O)NCC2CCN(c3ccnc(C)c3)CC2)cc1OCCc1ccc(Cl)cc1 [Example 171] | 130 |
| Cc1ccc(C(=O)NCC2CCN(c3ccnc(Cl)n3)CC2)cc1OCCc1ccc(Cl)cc1Cl [Example 172, N-[1-(2-Chloro-pyrimidin-4-yl)-piperidin-4-ylmethyl]-3-[2-(2,4-dichloro-phenyl)-ethoxy]-4-methyl-benzamide] | 6450 |

Now from value to compound:

| Ki [nM] | SMILES |
| --- | --- |
| 298 | Cc1ccc(C(=O)N2CCN(Cc3ccncc3)CC2)cc1OCCc1ccc(Cl)cc1Cl [Example 4, {3-[2-(2,4-Dichlorophenyl)-ethoxy]-4-methyl-phenyl}-(4-pyridin-4-ylmethyl-piperazin-1-yl)-methanone] |
| 3010 | COc1ccc(C(=O)N2CCN(Cc3ccc(F)cc3)CC2)cc1OCCc1ccc(Cl)cc1Cl [Example 12, {3-[2-(2,4-Dichlorophenyl)-ethoxy]-4-methoxy-phenyl}-[4-(4-fluorobenzyl)-piperazin-1-yl]-methanone] |
| 95 | COc1cc(C(=O)N2CCN(Cc3ccncc3)CC2)cc(OCCc2ccc(Cl)cc2Cl)c1Br [Example 19, {4-Bromo-3-[2-(2,4-dichlorophenyl)-ethoxy]-5-methoxyphenyl}-(4-pyridin-4-ylmethyl-piperazin-1-yl)-methanone] |
| 241 | O=C(NCC1CCN(c2ccncc2)CC1)c1cc(OCCc2ccc(Cl)cc2Cl)ccc1Cl [Example 81] |
| 26 | O=C(NCC1CCN(c2ccncc2)CC1)c1cc(O)c(Br)c(OCCc2ccc(Cl)cc2Cl)c1 [Example 86] |
| 365 | O=C(c1ccc(Br)c(OCCc2ccc(Cl)cc2Cl)c1)N1CCN(Cc2ccncc2)CC1 [Example 176, {4-Bromo-3-[2-(2,4-dichloro-phenyl)-ethoxy]-phenyl}-(4-pyridin-4-ylmethyl-piperazin-1-yl)-methanone] |
